Structures can show the parent of a compound that is named as a salt. Where two headings read alike, the source gives them in different places.
Key:
[1] = target: T1, human platelet PLA2 (Homo sapiens, UniProt P14555); assay: Inhibition of human platelet PLA2 (hydrolysis of [1-14C]oleic acid labelled E. coli membrane phospholipids) in vitro; type: biochemical; details: for IC50: standard drugs
T1 sequence (P14555 21-144): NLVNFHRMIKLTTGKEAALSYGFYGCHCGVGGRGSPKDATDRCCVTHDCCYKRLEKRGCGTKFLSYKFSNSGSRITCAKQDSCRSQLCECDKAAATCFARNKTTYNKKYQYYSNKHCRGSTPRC
Method: The ability of the compounds to inhibit the activity of PLA2 enzyme is measured in the following in vitro assay.
The assay measures the hydrolysis of E. coli membrane phospholipids and the release of free [1-^14 C] oleic acid from the C-2 position of phospholipids by human platelet PLA2. To ice cold 15×100 mm test tubes, the following additions are made: 2,5×10 E. coli (equivalent to 4 nmol phospholipid), 5 mM Ca^++, 100 mM Tris buffer (pH=7.4), 100 μg platelet extract (or an amount to produce 20-30% hydrolysis), drug or vehicle. The final volume is adjusted to 500 μl with water. Mixtures are vortexed and incubated for 30 minutes in a shaking water bath. It should be noted that preliminary experiments are always performed with each new batch of platelets to establish linear hydrolysis of phospholipids with regard to protein concentration and time. The enzyme reaction is stopped by the addition of 3 volumes of chloroform to each tube which is vortexed and then centrifuged for 5 minutes at 500 g. The lower chloroform/methanol phase is removed and evaporated under N. The dried residue is redissolved in 50 μl CHCl3 :CH3 OH (9:1 v/v), spotted on aluminum-backed chromatographic plates and developed in a solvent system consisting of petroleum ether:diethyl ether:acetic acid (80:20:1). Free fatty acid ([1-^14 C]oleic acid) and [1-^14 C]oleic acid labeled phospholipids are visualized with exposure to iodine vapors. Radioactive areas that cochromatographed with authentic oleic acid and phospholipid standards are cut out and placed in a scintillation vial. One ml CH3 OH and 10 ml Hydrofluor are added to each cut strip and radioactivity is determined by liquid scintillation counting.
The percent hydrolysis is calculated by the following equation: [formula]

[2] = test system: 12-O-tetradecanoylphorbol acetate (TPA)-induced murine ear edema; assay: TPA-induced murine ear edema test; type: in vivo, Swiss Webster female mice; details: oral, 30 minutes after TPA; 4 μg TPA/ear; measured 4 hours after TPA; dose in mg/kg not given
Method: The ability of the compounds of the invention to inhibit PLA2 is further examined in the in vivo 12-O-tetradecanoylphorbol acetate (TPA)-induced murine ear edema test. According to this test, Swiss Webster female mice (Buckshire), approximately 8 weeks old, are placed into plastic boxes in groups of six. Eight groups of mice receive TPA topically on the right ear. TPA is dissolved in acetone at a concentration of […]. The phlogistics are applied to the right ear by the means of an automatic pipet. Volumes of 10 μl are applied to the inner and outer surfaces of the ear. Each mouse receives 4 μg/ear TPA. The left ear (control) receives acetone delivered in the same manner. […] Measurements are taken with Oditest calipers, 0-10 mm with 0.01 graduations. The right and left ears are measured 4 hours after TPA-induced inflammation. The difference between right and left ear thickness is calculated and the significance is determined by a one way analysis of variance with Dunnett's comparisons to control (P=0.05). Drug effects are expressed as a percent change from control values: [formula]

[3] = test system: rat carrageenan paw edema; assay: Rat carrageenan paw edema assay; type: in vivo, male Sprague-Dawley rats; details: for % Inhibition (paw edema): 100 mg/kg peroral, 1 hour prior to carrageenan, paw read at 3 hours
Method: The compounds of the invention are further tested in the rat carrageenan paw edema assay to determine their ability to inhibit the acute inflammatory response.
This assay is carried out as follows:
140-180 gm male Sprague-Dawley rats, in groups of 6 animals are injected subcutaneously in the right paw with 0.1 ml of 1% carrageenan at zero time. Mercury plethysmographic readings (ml) of the paw are made at zero time and 3 hours later. Test compounds are suspended or dissolved in 0.5% methylcellulose and given perorally 1 hour prior to carrageenan administration.
The increase in paw volume (edema in ml.) produced by the carrageenan is measured. […] Unpaired Student's t-test used to determine statistical significance.

[4] = test system: synthesis of arachidonic acid, PGE2 and LTC4 by murine peritoneal macrophages; assay: Inhibition of synthesis of arachidonic acid, PGE2 and LTC4 by murine peritoneal macrophages; type: cell-based, CD-1 mice; details: Mus musculus, Peritoneal macrophage, 2 hours
Method: The ability of the compounds of the invention to inhibit both leukotriene and prostaglandin synthesis is examined in an assay which measures the ability of the compounds of the invention to inhibit the synthesis of arachidonic acid, PGE2 and LTC4 by murine peritoneal macrophages.
The assay is carried out as follows:
Macrophages are removed from the peritoneal cavity of 55-57 day old CD-1 mice (killed by CO2 asphyxiation) by peritoneal lavage and centrifuged at 400×g for ten minutes. The cells are resuspended in Medium 199 and 4×10^6 cells are allowed to adhere on 35×10 mm Petri dishes for 1.5 hours at 37° C. in an atmosphere of 95% air and 5% CO2. The cell monolayers are washed and incubated overnight in Medium 199 supplemented with 10% heat inactivated bovine serum containing 1μCi[^14 C]-arachidonic acid, or in the absence of ^14 C-arachidonic acid when the supernatant is to be assayed by radioimmunoassay (RIA). The labeled cells are then washed and incubated at 37° C. for 2 hours in Medium 199 with the prostaglandin stimuli, zymosan, or 12-o-tetradecanoyl-phorbol-13-acetate (TPA) and in the presence or absence of test compounds. Following incubation, the supernatant is removed and subjected to radioimmunoassay in order to determine the percent inhibition of arachidonic acid, prostaglandin E2 and leukotriene C4 by the test compounds.

[5] = pH 7.4, read-out: % Inhibition of PLA2
[6] = at 100 μM, human platelet PLA2, 30 minutes, pH 7.4, read-out: % Inhibition of PLA2
[7] = human platelet PLA2, 30 minutes, pH 7.4

`CCCCCCCCCCCCCCCCNC(=O)C(N)CCCC.Cl` (centres unmarked) [Example 1, 2-Amino-N-hexadecylhexanamide, hydrochloride] was tested, and the inhibition at 100 µM [1, 5] was 99% and the “% Change from Control (mouse ear edema)” value [2] was -25%.
For `CCCCC(N)C(=O)NC1CCCCCCCCCCC1.Cl` (centres unmarked) [Example 2a, 2-Amino-N-cyclododecylhexanamide, hydrochloride], the inhibition at 100 µM [1, 5] was 76%, the “% Inhibition (paw edema)” value [3] was 22% and the “% Change from Control (mouse ear edema)” value [2] was -60%.
`CCCC[C@H](N)C(=O)N1CCC(C)CC(C)(C)C1` (stereo partly drawn) [Example 2b, 1-[(S)-2-Amino-1-oxohexyl]hexahydro-3,3,5-trimethyl-1H-azepine, hydrochloride] gave an inhibition at 100 µM [1, 5] of 25%.
`CCCC[C@H](N)C(=O)N1CCC2CCCCC2C1` (stereo partly drawn) [Example 2c, 2-[(S)-2-Amino-1-oxohexyl]decahydroisoquinoline, hydrochloride hemihydrate] gave an inhibition at 100 µM [1, 6] of 24%.
In the case of `CCCC[C@H](NC(=O)CCCCCCc1ccccc1)C(=O)N1CC(C)NC(C)C1` (stereo partly drawn) [Example 3, N-[(S)-1-Butyl-2-(3,5-dimethyl-1-piperazinyl)-2-oxoethyl]benzeneheptanamide], the inhibition at 100 µM [1, 6] is reported as 64% and the “% Change from Control (mouse ear edema)” value [2] is reported as -39%.
`CCCCC(NC(=O)Cc1ccc(-c2ccccc2)cc1)C(=O)N1CC(C)NC(C)C1` (centres unmarked) [Example 4, N-[1-[(3,5-Dimethyl-1-piperazinyl)carbonyl]pentyl][1,1'-biphenyl]-4-acetamide] was tested, and the inhibition at 100 µM [1, 6] was 52%.
`CCCCCCCCCCCCCCCCNC(=O)[C@@H]1CCCN1` [Example 5a, N-(S)-Hexadecyl-2-pyrrolidinecarboxamide] gave an inhibition at 100 µM [1, 6] of 92%, an IC50 ([4]; arachidonic acid, zymosan or TPA stimulus, read-out: IC50 AA) of 19.6 µM and an IC50 ([4]; leukotriene C4, zymosan or TPA stimulus, read-out: IC50 LTC4) of 7.6 µM. The IC50 ([4]; prostaglandin E2, zymosan or TPA stimulus, read-out: IC50 PGE2) was 13.7 µM, the “% Inhibition (paw edema)” value [3] was 26% and the “% Change from Control (mouse ear edema)” value [2] was -53%.
With `CCCCCCCCCCCCCCCCNC(=O)[C@H]1CCCN1` [Example 5b, N-(R)-Hexadecyl-2-pyrrolidinecarboxamide] the inhibition at 100 µM [1, 6] was 98% and the “% Inhibition (paw edema)” value [3] was 26%.
Compound `O=C(NC1CCCCCCCCCCC1)C1CCCN1` (centres unmarked) [Example 5c, N-Cyclododecyl-2-pyrrolidinecarboxamide, hydrochloride] has an inhibition at 100 µM [1, 5] of 58%.
In the case of `O=C(NC1CCCCCCCCCCC1)C1CCCCN1` (centres unmarked) [Example 5d, N-Cyclododecyl-2-piperidinecarboxamide, hydrochloride], the inhibition at 100 µM [1, 5] is reported as 45%.
Compound `O=C(C1CCCCN1)N1CCC2CCCCC2C1` (centres unmarked) [Example 5f, Decahydro-2-(2-piperidininylcarbonyl)isoquinoline, hydrochloride] has an inhibition at 100 µM [1, 6] of 24%.
For `N[C@@H](Cc1c[nH]c2ccccc12)C(=O)NC1CCCCCCCCCCC1` [Example 6, (S)-α-Amino-N-cyclododecyl-1H-indole-3-propanamide, hydrochloride], the inhibition at 100 µM [1, 5] was 52%.
In the case of `N[C@@H](CC(=O)OCc1ccccc1)C(=O)NC1CCCCCCCCCCC1` [Example 7, (S)-3-Amino-4-(cyclododecylamino)-4-oxobutanoic acid phenylmethyl ester, hydrochloride], the inhibition at 100 µM [1, 5] is reported as 60%.
With `COc1ccc2c(c1)c(CC(=O)O)c(C)n2C(=O)c1ccc(Cl)cc1` [Indomethacin, reference compound] the IC50 [1, 7] was 48 µM and the ED50 ([3]; Rattus norvegicus, po, 3 h, read-out: Oral ED50 (95% C.L.)) was 3.7 mg/kg.
For “Gold Sodium Thiomalate [reference compound]”, the IC50 [1, 7] was 43 µM.

From patent US4792555A, “Phospholipase A2 inhibitors” (American Home Products Corporation, priority 1987, dated 1988)
